Where only a bound is given, the exact number is not on record here.

In the test the test system is human neuroblastoma line BE(2)-M17 (M17) cells. In words: Measurement of Fe efflux from cells. The test is classed as cell-based. Conditions: M17 cells pre-loaded with 57Fe, compound 20 μM for 2 h, percentage increase of Fe in media relative to media without compound, read-out: % Fe Efflux Range. How it is done:
Method I: Measurement of Fe Efflux from Cells
Compounds of the current invention were assessed for their ability to efflux iron (Fe) from a cell using the following protocol.
The human neuroblastoma line BE(2)-M17 (M17) cell cultures were acquired from Sigma Aldrich (Catalogue #: 95011816). M17 Cells were maintained in Opti-MEM reduced serum media supplemented with 10% fetal bovine serum (Bovogen, SFBSF) and passaged twice weekly. Cells were cultured at 37° C. in the presence of 5% CO2. Culture supplies were sourced from Thermo Fisher unless otherwise stated.
A solution of ^57Fe cold isotope was prepared by dissolving ^57Fe metal (>95% enrichment, Trace Sciences International) in concentrated HCl to give a final concentration of 573 mM. From this master solution, a 10 mM working solution was prepared in sterile water. The working solution was used within two months of preparation.
M17 cells were loaded with iron initially by seeding into 48-well plates at a density of 0.15×10^6 cells per well in 0.5 mL media. After 48 h, old media was discarded. Fresh media was supplemented with 20 μM ^57Fe isotope, from the 10 mM ^57Fe working solution. Cells received 0.2 mL of this ^57Fe enriched media and were returned to the incubator for 20 h. The ability of experimental compounds to efflux iron was determined by the dissolution of compounds in DMSO and diluted in Hanks' Balanced Salt Solution (HBSS) for treatment of M17 cells. After ^57Fe incubation, cells were rinsed twice with HBSS and treated with 0.15 mL trial compound for 2 h at a concentration of 20 μM. All assays included a relevant vehicle (0.4%-0.8% DMSO) as well as a positive control (20 μM). Following the treatment period, 0.1 mL of media was collected from cells and the extracellular ^57Fe content was analysed via inductively coupled mass spectrometry (ICP-MS, Agilent 7700x series instrument).
To perform this protocol the following supplies were purchased from Sigma Aldrich: anhydrous dimethyl sulfoxide (DMSO, Catalogue #: 276855), Hanks' Balanced Salt Solution supplemented with 20 mM HEPES and 4.2 mM Sodium Bicarbonate (HBSS, pH: 7.4, Catalogue #: H1387).
After 2 h the Fe levels in the media were measured and the increase determined as a percentage increase relative to the cell media in the absence of the compound.

As for `COc1ccncc1-c1nc(-c2cc(F)cc(F)c2O)n2ccccc12` [Compound 155], the activation at 20 µM is below 30%.
With `Oc1cccnc1-c1nc(-c2ccc(Cl)cc2)n2ccccc12` [Compound 127] the figure was below 30%; with `Oc1cccc(F)c1-c1nc(-c2cccc(Br)c2O)c2ccccn12` [Compound 34], 30 to 100%.
The figure for `Oc1cc(F)ccc1-c1nc(-c2cccc(F)c2O)n2ccccc12` [Compound 50] is 30 to 100%; for `Oc1ccccc1-c1nc(-c2ccccc2O)n2cccnc12` [Compound 107, 2,2′-(Imidazo[1,5-a]pyrimidine-6,8-diyl)diphenol] it is 30 to 100%; for `COc1ccncc1-c1nc(-c2ccccc2O)n2ccccc12` [Compound 153] it is below 30%.
The figure for `Oc1cccc(F)c1-c1nc(-c2cccnc2O)c2ccccn12` [Compound 152] is 30 to 100%; for `Oc1cnccc1-c1nc(-c2cccc(F)c2O)n2ccncc12` [Compound 175] it is above 150%; for `Oc1c(Cl)cccc1-c1nc(-c2cccc(Br)c2O)c2ccccn12` [Compound 32] it is 30 to 100%.
For `Oc1ccc(Cl)cc1-c1nc(-c2cccc(F)c2O)c2ccccn12` [Compound 42], the activation at 20 µM was 30 to 100%.
Consider `Oc1ccncc1-c1nc(-c2cc(F)cc(F)c2O)n2ccccc12` [Compound 160], for which the activation at 20 µM was in the range of 30 to 100%.
With `Cc1ccc(O)c(-c2nc(-c3ccncc3O)c3cnccn23)c1` [Compound 180] the figure was above 150%; with `Oc1cccnc1-c1nc(-c2c(O)cccc2Cl)n2ccccc12` [Compound 80], 30 to 100%; with `Cc1ccc(O)c(-c2nc(-c3ncccc3O)c3ccccn23)c1` [Compound 94], 30 to 100%.
In the case of `Oc1ccccc1-c1nc(-c2cc(F)cc(F)c2O)n2ccccc12` [Compound 23], the activation at 20 µM was below 30%.
The figure for `COC(=O)c1ccc(O)c(-c2nc(-c3ccccc3O)c3ccccn23)c1` [Compound 22, Methyl 4-hydroxy-3-(1-(2-hydroxyphenyl)imidazo[1,5-a]pyridin-3-yl)benzoate] is 30 to 100%; for `COc1cccnc1-c1nc(-c2ccccc2O)n2ccccc12` [Compound 3, 2-(1-(3-Methoxypyridin-2-yl)imidazo[1,5-a]pyridin-3-yl)phenol] it is 30 to 100%; for `COc1cccnc1-c1nc(-c2cc(C)ccc2O)n2ccccc12` [Compound 61] it is 30 to 100%.
Regarding `Oc1cccc(Cl)c1-c1nc(-c2cccc(Br)c2O)c2ccccn12` [Compound 35], the activation at 20 µM is below 30%.
For the compound `Oc1cc(F)ccc1-c1nc(-c2cc(F)ccc2O)n2ccccc12` [Compound 51], the activation at 20 µM is below 30%.
With `Oc1ccccc1-c1nc(-c2ccc(Cl)cc2)n2ccccc12` [Compound 29] the figure was below 30%; with `Cc1ccc(O)c(-c2nc(-c3cnccc3O)c3ccccn23)c1` [Compound 169], 30 to 100%.
With `Oc1ccccc1-c1nc(-c2cccnc2O)c2ccccn12` [Compound 141, 3-(3-(2-Hydroxyphenyl)imidazo[1,5-a]pyridin-1-yl)pyridin-2-ol] the figure was 100 to 150%; with `Oc1cccc(F)c1-c1nc(-c2cccc(F)c2O)c2ccccn12` [Compound 38], 30 to 100%.
The figure for `Oc1ccccc1-c1nc(-c2c(Cl)cccc2Cl)n2ccccc12` [Compound 24] is below 30%.
Turning to `Oc1cnccc1-c1nc(-c2cc(F)ccc2O)n2ccncc12` [Compound 178], the activation at 20 µM was above 150%.
Turning to `Oc1cnccc1-c1nc(-c2ccccc2O)n2ccncc12` [Compound 174], the activation at 20 µM was above 150%.
The figure for `Oc1cnccc1-c1nc(-c2ccccc2O)n2ncccc12` [Compound 181] is 100 to 150%.
As for `Oc1cccnc1-c1nc(-c2ccccc2F)n2ccccc12` [Compound 130, 2-(3-(2-Fluorophenyl)imidazo[1,5-a]pyridin-1-yl)pyridin-3-ol], the activation at 20 µM was below 30%.

These data come from US10941143B2, “Imidazo [1,5-a]pyridine compounds and their use” (Alterity Therapeutics Limited, priority 2019, dated 2021).
